Experimental data published in US11932634B2 (Gilead Sciences, Inc., priority 2021, dated 2024).
pEC50, pIC50: −log10 of the molar value.

How the values were obtained:
[1] = system: Jurkat NFκB-luciferase cells; assay: Jurkat NFκB-Luciferase Assay; type: cell-based; settings: Homo sapiens; Jurkat NFκB-luciferase cells activated with anti-CD3 antibody (OKT3), 2.5 hrs at 37° C., One-Glo Ex; geometric mean; read-out: DGK NFKb Luciferase EC50;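 also: bioluminescence read-out normalized to DMSO basal activation and to maximum enhancement at 1 µM compound, rising signal indicating stronger T-cell activation through DGKα inhibition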
Procedure: The activity of compounds was tested in a cell based NFκB reporter assay. Jurkat cells that are stably expressing a luciferase reporter construct under the transcriptional control of a NFκB reporter element were activated with an anti-CD3 antibody and luciferase levels were measured with a bioluminescence readout.
The day after, the excess antibody was washed out five times with 100 ul/well of assay medium (RPMI supplemented with 10% fetal bovine serum) using a Biotek EL406 instrument and leaving 20 µl of residual volume in each well. Jurkat NFκB-luciferase cells (Promega #) were harvested and diluted to 1 million cells/ml in assay medium. Sixty nanoliters of test compound dissolved in DMSO at various concentrations were dispensed into 384-well v-bottom polypropylene plates (Greiner) using a Labcyte Echo instrument. Thirty microliters of medium containing the Jurkat NFκB-luciferase cells were then dispensed using a Biotek MicroFlo instrument in each well of the compound-containing plate. The medium/cell/compound mixture was mixed with a Bravo instrument and 20 ul/well of the mixture was transferred to the anti-CD3-coated plate. The assay mixture was then incubated for 2.5 hrs at 37° C. followed by equilibration at 25° C. for 30 min. Forty microliters of One-Glo Ex (Promega) was then added to the assay mixture and luciferase activity was read on a Envision plate reader 7 minutes later.
Bioluminescence data were normalized based on maximum enhancement (1 micromolar of compound) and on basal activation (DMSO) controls. Least squares curve fittings were performed using a four-parameter variable slope nonlinear regression model. […] EC50 values from multiple experiments were averaged by geometric mean and the standard deviation was calculated.

human DGKα = biological target: T1, human DGKα (Homo sapiens, UniProt P23743); assay: DGKα Biochemical Activity Assay (ADP-Glo);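 also: recombinant enzyme converting diacylglycerol in lipid micelles with ATP, ADP formed detected by luminescence, IC50 from a four-parameter nonlinear fit, geometric mean across experiments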
T1 construct: purchased Carna Biosciences'; inferred from the same paragraph's 'obtained from Carna Biosciences')
T1 sequence (P23743 whole entry): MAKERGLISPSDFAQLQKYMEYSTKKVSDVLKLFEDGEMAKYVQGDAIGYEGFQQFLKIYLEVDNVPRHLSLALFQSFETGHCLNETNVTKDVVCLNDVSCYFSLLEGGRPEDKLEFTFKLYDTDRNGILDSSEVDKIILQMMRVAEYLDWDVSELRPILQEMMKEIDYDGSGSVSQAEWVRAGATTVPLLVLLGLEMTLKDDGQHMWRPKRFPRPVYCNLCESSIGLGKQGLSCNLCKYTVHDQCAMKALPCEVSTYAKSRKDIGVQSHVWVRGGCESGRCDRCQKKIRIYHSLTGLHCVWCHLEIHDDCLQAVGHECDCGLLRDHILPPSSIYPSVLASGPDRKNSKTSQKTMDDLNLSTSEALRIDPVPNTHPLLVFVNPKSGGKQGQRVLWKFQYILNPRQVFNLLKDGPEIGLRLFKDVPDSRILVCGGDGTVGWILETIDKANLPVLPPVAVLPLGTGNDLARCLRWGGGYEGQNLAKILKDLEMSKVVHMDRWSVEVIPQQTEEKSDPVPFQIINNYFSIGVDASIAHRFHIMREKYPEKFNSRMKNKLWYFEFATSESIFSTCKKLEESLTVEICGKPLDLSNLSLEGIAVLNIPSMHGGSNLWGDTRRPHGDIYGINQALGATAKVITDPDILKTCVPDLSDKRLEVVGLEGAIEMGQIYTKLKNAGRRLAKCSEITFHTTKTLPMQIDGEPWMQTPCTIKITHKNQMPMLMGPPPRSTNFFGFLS

SMILES	pEC50 [1]	pIC50 (human DGKα)
[2H]C([2H])([2H])n1c(=O)nc(N2CCOCc3c(C#CC4CCCN4CC(F)F)cccc32)c2c(F)cccc21 (stereo not shown) [Example 168, 4-[6-[2-[1-(2,2-difluoroethyl)pyrrolidin-2-yl]ethynyl]-3,5-dihydro-2H-4,1-benzoxazepin-1-yl]-5-fluoro-1-(trideuteriomethyl)quinazolin-2-one]	8.81	8.27
[2H]C([2H])([2H])n1c(=O)nc(N2CCOCc3c(C#CC4(C)COC4)cccc32)c2c(F)cccc21 [Example 101, 5-fluoro-1-(methyl-d3)-4-(6-((3-methyloxetan-3-yl)ethynyl)-2,3-dihydrobenzo[e][1,4]oxazepin-1(5H)-yl)quinazolin-2(1H)-one]	8.39	8.58
CC(C)(C#Cc1cccc(N(CC(F)F)c2nc(=O)[nH]c3cccc(F)c23)c1F)C(F)F [Example 63, 4-[3-(4,4-difluoro-3,3-dimethyl-but-1-ynyl)-N-(2,2-difluoroethyl)-2-fluoro-anilino]-5-fluoro-1H-quinazolin-2-one]	8.82	6.55
CC(C)(O)C#Cc1cccc2c1COCCN2c1nc(=O)[nH]c2cccc(F)c12 [Example 87, 5-fluoro-4-[6-(3-hydroxy-3-methyl-but-1-ynyl)-3,5-dihydro-2H-4,1-benzoxazepin-1-yl]-1H-quinazolin-2-one]	7.51	8.02
Cn1c(=O)nc(N(CC(F)F)c2cc(F)cc(C#CC3(C(F)(F)F)CC3)c2)c2ccc(Cl)cc21 [Example 28, 7-chloro-4-[N-(2,2-difluoroethyl)-3-fluoro-5-[2-[1-(trifluoromethyl)cyclopropyl]ethynyl]anilino]-1-methyl-quinazolin-2-one]	8.94	6.77
CC(F)(F)C1(C#Cc2nccc3c2CCCN3c2nc(=O)[nH]c3ccc(F)c(F)c23)CC1 [Example 134, 4-[5-[2-[1-(1,1-difluoroethyl)cyclopropyl]ethynyl]-3,4-dihydro-2H-1,6-naphthyridin-1-yl]-5,6-difluoro-1H-quinazolin-2-one]	8.60	7.84
CC(C)(C#Cc1nccc2c1CCCN2c1nc(=O)[nH]c2cccc(F)c12)C(F)(F)F [Example 131, 5-fluoro-4-[5-(4,4,4-trifluoro-3,3-dimethyl-but-1-ynyl)-3,4-dihydro-2H-1,6-naphthyridin-1-yl]-1H-quinazolin-2-one]	7.95	7.36
O=c1nc(N2CCCc3c(C#CC4(C(F)F)CC4)cncc32)c2c(F)c(F)ccc2[nH]1 [Example 108, 4-(5-((1-(difluoromethyl)cyclopropyl)ethynyl)-3,4-dihydro-1,7-naphthyridin-1(2H)-yl)-5,6-difluoroquinazolin-2(1H)-one]	8.84	8.16
[2H]C([2H])([2H])n1c(=O)nc(N(CC(F)F)c2ccnc(C#CC3(C)CC3)c2)c2c(F)cccc21 [Example 138, 4-[2,2-difluoroethyl-[2-[2-(1-methylcyclopropyl)ethynyl]-4-pyridyl]amino]-5-fluoro-1-(trideuteriomethyl)quinazolin-2-one]	8.34	8.17
[2H]C([2H])([2H])n1c(=O)nc(N2CCOCc3c(C#CC(C)(C)C#N)cccc32)c2c(F)c(F)ccc21 [Example 98, 4-[1-[5,6-difluoro-2-oxo-1-(trideuteriomethyl)quinazolin-4-yl]-3,5-dihydro-2H-4,1-benzoxazepin-6-yl]-2,2-dimethyl-but-3-ynenitrile]	8.48	8.55
O=c1nc(N(CC(F)F)c2cccc(C#CC3(C(F)(F)F)CC3)c2F)c2c(F)cccc2[nH]1 [Example 58, 4-[N-(2,2-difluoroethyl)-2-fluoro-3-[2-[1-(trifluoromethyl)cyclopropyl]ethynyl]anilino]-5-fluoro-1H-quinazolin-2-one]	9.55	7.14
[2H]C([2H])([2H])n1c(=O)nc(N2CCOCc3c(C#CC(C)(C)C(F)(F)F)cccc32)c2c(F)cccc21 [Example 109, 5-fluoro-1-(methyl-d3)-4-(6-(4,4,4-trifluoro-3,3-dimethylbut-1-yn-1-yl)-2,3-dihydrobenzo[e][1,4]oxazepin-1(5H)-yl)quinazolin-2(1H)-one]	9.30	8.22
CC(C)(C#N)C#Cc1cc(F)cc(N(CC(F)F)c2nc(=O)[nH]c3ccc(F)c(F)c23)c1 [Example 69, 4-[3-[2,2-difluoroethyl-(5,6-difluoro-2-oxo-1H-quinazolin-4-yl)amino]-5-fluoro-phenyl]-2,2-dimethyl-but-3-ynenitrile]	8.74	7.57
O=c1nc(N(CC(F)F)c2cncc(C#CC3(C(F)(F)F)CC3)c2)c2cc(F)ccc2[nH]1 [Example 45, 4-((2,2-difluoroethyl)(5-((1-(trifluoromethyl)cyclopropyl)ethynyl)pyridin-3-yl)amino)-6-fluoroquinazolin-2(1H)-one]	8.21	7.17
CC1(C#Cc2cncc3c2CCCCN3c2nc(=O)[nH]c3ccc(F)c(F)c23)CC1 [Example 150, 5,6-difluoro-4-(6-((1-methylcyclopropyl)ethynyl)-2,3,4,5-tetrahydro-1H-pyrido[3,4-b]azepin-1-yl)quinazolin-2(1H)-one]	9.08	7.95
O=c1nc(N2CCCc3c2ccnc3C#CC2(C(F)(F)F)CC2)c2c(F)c(F)ccc2[nH]1 [Example 116, 5,6-difluoro-4-[5-[2-[1-(trifluoromethyl)cyclopropyl]ethynyl]-3,4-dihydro-2H-1,6-naphthyridin-1-yl]-1H-quinazolin-2-one]	9.02	8.39
CN(c1cc(F)cc(C#CC2(C(F)(F)F)CC2)c1)c1nc(=O)[nH]c2cc(Cl)ccc12 [Example 14, 7-chloro-4-[3-fluoro-N-methyl-5-[2-[1-(trifluoromethyl)cyclopropyl]ethynyl]anilino]-1H-quinazolin-2-one]	9.10	6.86
CN(c1cccc(-c2ccc(C3CC3)cc2)c1)c1nc(=O)n(C)c2cc(Cl)ccc12 [Example 2, 7-chloro-4-[3-(4-cyclopropylphenyl)-N-methyl-anilino]-1-methyl-quinazolin-2-one]	9.32	7.82
CC1(C#Cc2cncc3c2CCCCN3c2nc(=O)[nH]c3cccc(F)c23)CC1 [Example 152, 5-fluoro-4-(6-((1-methylcyclopropyl)ethynyl)-2,3,4,5-tetrahydro-1H-pyrido[3,4-b]azepin-1-yl)quinazolin-2(1H)-one]	9.17	7.79
[2H]C([2H])([2H])n1c(=O)nc(N2CCCc3c(C#CC4CCCN4C)cccc32)c2c(F)cccc21 (stereo not shown) [Example 161, 5-fluoro-4-[5-[2-(1-methylpyrrolidin-2-yl)ethynyl]-3,4-dihydro-2H-quinolin-1-yl]-1-(trideuteriomethyl)quinazolin-2-one]	8.55	7.78
O=c1nc(N(CC(F)F)c2cc(F)cc(C#CC3(C(F)(F)F)CC3)c2)c2ccc(Cl)cc2[nH]1 [Example 26, 7-chloro-4-[N-(2,2-difluoroethyl)-3-fluoro-5-[2-[1-(trifluoromethyl)cyclopropyl]ethynyl]anilino]-1H-quinazolin-2-one]	8.97	6.50
CC(C)(C#Cc1nccc(N(CC(F)F)c2nc(=O)[nH]c3cccc(F)c23)c1F)C(F)F [Example 121, 4-[[2-(4,4-difluoro-3,3-dimethyl-but-1-ynyl)-3-fluoro-4-pyridyl]-(2,2-difluoroethyl)amino]-5-fluoro-1H-quinazolin-2-one]	8.07	7.68
CC(C)(O)C#Cc1cccc2c1CCCN2c1nc(=O)[nH]c2cccc(Cl)c12 [Example 127, 5-chloro-4-[5-(3-hydroxy-3-methyl-but-1-ynyl)-3,4-dihydro-2H-quinolin-1-yl]-1H-quinazolin-2-one]	8.41	8.06
